Test results taken from patent US4686221A, “Quinolinecarboxylic acid compounds and antimicrobial agent containing the same” (Kanebo, Ltd., priority 1985, dated 1987).
In brackets after ≈: the same amount, converted by molar mass. Counter-ions that a name gives are not always drawn. Like-named read-outs stand apart in the source and are kept apart here.

Experiments:
Escherichia coli KC-14 [1] = test: Antibacterial activity in vivo (effect against systemic infection: ED50), E. coli infected mice; set-up: species or system ddY male mice infected with Escherichia coli; details: read-out: Antibacterial activity ED50 (50% effective dose)
Experimental: (§1) (2) Measurement of antibacterial activity in vivo (effect against systemic infection: ED50):
(§2) The test microorganism was cultured by stationary culture in an agar medium (Trypto-Soya Agar "Nissui", manufactured by Nissui Seiyaku K.K., Japan) at 37° C. for 16 to 18 hours. The culture was diluted with PBS (Dulbecco's phosphate buffered saline) and then was mixed with an equiamount of 10% (W/V) mucin (BACTO MUCIN BACTERIOLOGICAL, manufactured by Difco Co.). The mixture thus prepared was intraperitoneally inoculated to fasted ddY male mice (4 weeks age, weighing 18-20 g, one group: 5 mice) in a dose of 0.5 ml. The inoculum size was 1.3×10^7 CFU/mouse in case of S. aureus IID 803, and 9.7×10^3 CFU/mouse in case of E. coli KC-14.
(§3) The mice were daily observed for one week, and from the survival number of mice after one week, the 50% effective dose (ED50) was calculated by the Weil method.

Escherichia coli KC-14 [2] = test: Antibacterial activity in vitro (minimum inhibitory concentration: MIC); type: cell-based
Experimental: (§4) (1) Measurement of antibacterial activity in vitro (minimum inhibitory concentration: MIC):
(§5) The test compounds were each dissolved in 0.1N aqueous potassium hydroxide or sterilized distilled water and diluted with sterilized distilled water to give a standard solution (concentration: 1,000 μg/ml). The test was carried out by a method as appointed by Japan Society of Chemotherapy [cf. Chemotherapy, 29, 76-79 (1981) (TOKYO)].

[3] = test system: Staphylococcus aureus IID 803; test: as above; type: cell-based
Experimental: (§6) Staphylococcus aureus IID 803
as §4, §5

[4] = test system: Staphylococcus aureus IID 803; test: Antibacterial activity in vivo (effect against systemic infection: ED50), S. aureus infected mice; set-up: species or system ddY male mice infected with Staphylococcus aureus; details: read-out: Antibacterial activity ED50 (50% effective dose)
Experimental: as §6, §1, §2, §3

in vivo = details: mouse, po
Experimental: EXPERIMENT 2: ACUTE TOXICITY (LD50)
The number of dead mice during 2 weeks after administration was counted, and the acute toxicity (LD50) was calculated by Weil method.

[5] = KC14, 168 h, E. coli KC-14 systemic infection, mice, oral 1 h after infection, survival after one week
[6] = KC14, E. coli KC-14, in vitro, read-out: Antibacterial activity MIC (minimum inhibitory concentration)
[7] = IID803, S. aureus IID 803, in vitro, read-out: Antibacterial activity MIC (minimum inhibitory concentration)
[8] = IID803, 168 h, S. aureus IID 803 systemic infection, mice, oral 1 h after infection, survival after one week

Row | SMILES | ED50 (Escherichia coli KC-14 [1]; [5]) [mg/kg] | MIC (Escherichia coli KC-14 [2]; [6]) [µg/mL] | MIC [3, 7] [µg/mL] | ED50 [4, 8] [mg/kg] | ED50 (Escherichia coli KC-14 [1]; KC14, po, 168 h) [mg/kg] | MIC (Escherichia coli KC-14 [2]; KC14, read-out: Antibacterial activity MIC (minimum inhibitory concentration)) [µg/mL] | MIC ([3]; IID803, read-out: Antibacterial activity MIC (minimum inhibitory concentration)) [µg/mL] | ED50 ([4]; IID803, po, 168 h) [mg/kg] | LD50 at 336 h (in vivo) [mg/kg]
1 | CCn1cc(C(=O)O)c(=O)c2cc(F)c(N3CCNCC3)cc21 [A, 1-Ethyl-6-fluoro-1,4-dihydro-7-(piperazin-1-yl)-4-oxoquinoline-3-carboxylic acid, reference compound] | 5.82 | 0.2 (≈ 0.626 µM) | 1.56 (≈ 4.89 µM) | 225 |  |  |  |  | 
2 | Cl.O=C(O)c1cn(C2CC2)c2cc(N3CCNCC3)c(F)cc2c1=O [B, 1-Cyclopropyl-6-fluoro-1,4-dihydro-7-(piperazin-1-yl)-4-oxoquinoline-3-carboxylic acid hydrochloride, reference compound] |  |  |  |  | 0.84 | 0.0125 | 0.78 | 46.7 | 
3 | CCn1cc(C(=O)O)c(=O)c2cc(F)c(N3CCNCC3)c(F)c21.Cl [C, 1-Ethyl-6,8-difluoro-1,4-dihydro-7-(piperazin-1-yl)-4-oxoquinoline-3-carboxylic acid hydrochloride, reference compound] | 1.46 | 0.1 | 0.78 | 40.3 |  |  |  |  | 1070
4 | Cl.O=C(O)c1cn(CCF)c2c(F)c(N3CCNCC3)c(F)cc2c1=O [D, 6,8-Difluoro-1-(2-fluoroethyl)-1,4-dihydro-7-(piperazin-1-yl)-4-oxoquinoline-3-carboxylic acid hydrochloride, reference compound] | 5.82 | 0.2 | 1.56 | 123 |  |  |  |  | 
5 | Cl.O=C(O)c1cn(C2CC2)c2c(F)c(N3CCNCC3)c(F)cc2c1=O [E, 1-Cyclopropyl-6,8-difluoro-1,4-dihydro-7-(piperazin-1-yl)-4-oxoquinoline-3-carboxylic acid hydrochloride, reference compound] | 0.28 | 0.0125 | 0.2 | 5.07 |  |  |  |  | 1410
6 | CCn1cc(C(=O)O)c(=O)c2cc(F)c(N3CCN(O)CC3)cc21 [compound 1, 1-Ethyl-6-fluoro-1,4-dihydro-7-(4-hydroxypiperazin-1-yl)-4-oxoquinoline-3-carboxylic acid] | 1.92 | 0.39 (≈ 1.16 µM) | 1.56 (≈ 4.65 µM) | 187 |  |  |  |  | > 4000
7 | O=C(O)c1cn(C2CC2)c2cc(N3CCN(O)CC3)c(F)cc2c1=O [compound 2, 1-Cyclopropyl-6-fluoro-1,4-dihydro-7-(4-hydroxypiperazin-1-yl)-4-oxoquinoline-3-carboxylic acid hydrochloride 1/4 hydrate] | 0.37 | 0.025 | 0.78 | 17.7 |  |  |  |  | > 4000
8 | CCn1cc(C(=O)O)c(=O)c2cc(F)c(N3CCN(O)CC3)c(F)c21.Cl [compound 3, 1-Ethyl-6,8-difluoro-1,4-dihydro-7-(4-hydroxypiperazin-1-yl)-4-oxoquinoline-3-carboxylic acid hydrochloride] | 0.84 | 0.2 | 0.78 | 26.8 |  |  |  |  | > 4000
9 | Cl.O.O=C(O)c1cn(CCF)c2c(F)c(N3CCN(O)CC3)c(F)cc2c1=O [compound 4, 6,8-Difluoro-1-(2-fluoroethyl)-1,4-dihydro-7-(4-hydroxypiperazin-1-yl)-4-oxoquinoline-3-carboxylic acid hydrochloride monohydrate] | 1.46 | 0.39 | 1.56 | 107 |  |  |  |  | > 4000
10 | Cl.O=C(O)c1cn(C2CC2)c2c(F)c(N3CCN(O)CC3)c(F)cc2c1=O [compound 5, 1-Cyclopropyl-6,8-difluoro-1,4-dihydro-7-(4-hydroxypiperazin-1-yl)-4-oxoquinoline-3-carboxylic acid hydrochloride] | 0.19 | 0.05 | 0.39 | 3.84 |  |  |  |  | > 4000
